These results are taken from patent EP4806891A1 (Kangbaida (Sichuan) Biotechnology Co., Ltd., priority 2023, dated 2025).

As usually defined, the IC50 is the midpoint of a concentration-inhibition curve.

In this assay the target is T1, HEK-Blue-hTLR9 cells (Homo sapiens, UniProt Q9NR96).
T1 construct: expressed in transfected cells; host or cells: HEK-Blue-hTLR9 cells (HEK293-derived reporter line)
T1 sequence (Q9NR96 26-1032): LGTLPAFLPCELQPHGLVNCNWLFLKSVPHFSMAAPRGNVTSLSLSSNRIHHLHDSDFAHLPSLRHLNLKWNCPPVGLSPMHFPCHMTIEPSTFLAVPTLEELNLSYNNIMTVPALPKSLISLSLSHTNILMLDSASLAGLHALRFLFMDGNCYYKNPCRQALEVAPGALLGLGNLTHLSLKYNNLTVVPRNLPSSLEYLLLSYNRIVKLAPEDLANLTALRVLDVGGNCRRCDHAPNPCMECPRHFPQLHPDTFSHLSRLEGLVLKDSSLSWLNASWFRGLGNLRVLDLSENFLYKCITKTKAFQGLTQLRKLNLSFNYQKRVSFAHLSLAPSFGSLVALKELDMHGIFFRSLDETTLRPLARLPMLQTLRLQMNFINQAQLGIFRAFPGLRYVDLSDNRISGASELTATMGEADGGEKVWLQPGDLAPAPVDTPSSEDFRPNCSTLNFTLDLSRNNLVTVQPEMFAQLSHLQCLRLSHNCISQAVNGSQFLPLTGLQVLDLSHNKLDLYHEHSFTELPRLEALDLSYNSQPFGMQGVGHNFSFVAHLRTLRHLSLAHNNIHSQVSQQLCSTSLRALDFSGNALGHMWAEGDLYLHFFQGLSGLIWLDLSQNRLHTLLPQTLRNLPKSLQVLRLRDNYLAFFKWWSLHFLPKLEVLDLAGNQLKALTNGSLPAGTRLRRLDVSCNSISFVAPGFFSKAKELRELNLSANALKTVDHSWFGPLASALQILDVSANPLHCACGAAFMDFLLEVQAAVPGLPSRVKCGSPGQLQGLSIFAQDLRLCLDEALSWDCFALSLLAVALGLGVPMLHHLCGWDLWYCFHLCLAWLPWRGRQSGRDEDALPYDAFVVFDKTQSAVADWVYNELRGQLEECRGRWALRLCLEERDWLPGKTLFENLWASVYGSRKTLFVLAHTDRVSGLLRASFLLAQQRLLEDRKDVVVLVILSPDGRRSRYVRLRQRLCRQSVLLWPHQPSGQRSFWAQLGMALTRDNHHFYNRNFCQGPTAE
As to the kind of experiment: HEK-Blue-hTLR9 cell inhibition assay. It counts as cell-based. Particulars: ODN2006 1 µM, 16 h, OD 620 nm, read-out: TLR9 IC50. As to the method: HEK-Blue-hTLR7/8/9 cell inhibition assay
1. HEK-Blue-hTLR7/8 cells (1 × 10^4 cells/well) and HEK-Blue-hTLR9 cells (1.5 × 10^4 cells/well) were seeded in a 384-well cell culture plate, with a volume of 30 µL per well. The plate was incubated at 37°C in a 5% CO2 incubator for 4 h. 2. The compound was prepared with DMSO and diluted in DMEM medium to 10 concentrations (1:3 dilution), with final concentrations of 10000, 3333.3, 1111.1, 370.4, 123.5, 41.2, 13.7, 4.6, 1.5, and 0.5 nM; R848 was prepared with DMSO and diluted in DMEM medium, with final concentrations of 0.8 µM (HEK-Blue-hTLR7) and 3 µM (HEK-Blue-hTLR8); ODN2006 was prepared with endotoxin-free water and diluted in DMEM medium, with a final concentration of 1 µM. 3. Cells treated with DMSO were used as the blank control group, while cells treated solely with Resiquimod (R848) were used as the positive control group for HEK-Blue-hTLR7/8, and cells treated solely with ODN2006 were used as the positive control group for HEK-Blue-hTLR9. Cells treated with the test compound together with R848 or ODN2006 were used as the test group. Two parallel wells were set for each group and were placed at 37°C in a 5% CO2 incubator for incubation. 4. After being incubated for 4 h, the 384-well plate of HEK-Blue-hTLR7/8 was taken out from the incubator, and R848 alone or both R848 and the diluted compound were separately added into each well. The plate was placed at 37°C in a 5% CO2 incubator for incubation for 16 h; the 384-well plate of HEK-Blue-hTLR9 was taken out from the incubator, and ODN2006 alone or both ODN2006 and the diluted compound were added separately to each well. The plate was incubated at 37°C in a 5% CO2 incubator for 16 h. 5. After being incubated for 16 h, the 384-well plate was removed from the incubator and centrifuged at 1000 rpm for 1 minute. The optical density value of each well at 620 nm was measured using a multifunctional microplate reader. 6. The cell inhibition rate was calculated as (1-(OD620 test group-OD620 blank group)/(OD620 positive group-OD620 blank group))×100%, and the half maximal inhibitory concentration (IC50) was calculated through curve fitting. Table 1: Activity of the compounds of the present disclosure in HEK-Blue-hTLR7/8/9 cellular assays

Consider `CN1CCN(c2nnc([C@]34CN(c5ccc(C#N)c6ncccc56)C[C@@]3(C(F)(F)F)C4)o2)CC1` [Compound 1, 5-((1S,5R)-1-(5-(4-methylpiperazin-1-yl)-1,3,4-oxadiazol-2-yl)-5-(trifluoromethyl)-3-azabicyclo[3.1.0]hexan-3-yl)quinoline-8-carbonitrile], for which the half-maximal inhibitory concentration (IC50) was over 10000 nM.

As for `Cc1cc(N2CC3(c4nnc(C5CCN(C)CC5)o4)C[C@]3(C(F)(F)F)C2)c2cnn(C)c2n1` (stereo partly drawn) [Compound 2, 2-((5R)-3-(1,6-dimethyl-1H-pyrazolo[3,4-b]pyridin-4-yl)-5-(trifluoromethyl)-3-azabicyclo[3.1.0]hexan-1-yl)-5-(1-methylpiperidin-4-yl)-1,3,4-oxadiazole], the half-maximal inhibitory concentration (IC50) is over 10000 nM.

As for `FC(F)(F)c1ccc(N2C[C@]3(c4nnc(C5(F)CCNCC5)o4)C[C@]3(C(F)(F)F)C2)c2cccnc12` [Compound 3, 2-(4-fluoropiperidin-4-yl)-5-((1S,5R)-5-(trifluoromethyl)-3-(8-(trifluoromethyl)quinolin-5-yl)-3-azabicyclo[3.1.0]hexan-1-yl)-1,3,4-oxadiazole], the half-maximal inhibitory concentration (IC50) was over 1000 nM.

Consider `CN1CC(c2nnc([C@]34CN(c5ccc(C(F)(F)F)c6ncccc56)C[C@@]3(C(F)(F)F)C4)o2)C1` [Compound 4, 2-(1-methylazetidin-3-yl)-5-((1S,5R)-5-(trifluoromethyl)-3-(8-(trifluoromethyl)quinolin-5-yl)-3-azabicyclo[3.1.0]hexan-1-yl)-1,3,4-oxadiazole], for which the 50% inhibitory concentration (IC50) was over 1000 nM.

Take `CN1CCC(c2nnc([C@]34CN(c5ccc(C#N)c6ncccc56)C[C@@]3(C(F)(F)F)C4)n2C)CC1` [Compound 5, 5-((1S,5R)-1-(4-methyl-5-(1-methylpiperidin-4-yl)-4H-1,2,4-triazol-3-yl)-5-(trifluoromethyl)-3-azabicyclo[3.1.0]hexan-3-yl)quinoline-8-carbonitrile]: the half-inhibitory concentration (IC50) is over 1000 nM.

With `CN1CCC(Nc2nnc([C@]34CN(c5ccc(C#N)c6ncccc56)C[C@@]3(C(F)(F)F)C4)o2)CC1` [Compound 6, 5-((1S,5R)-1-(5-((1-methylpiperidin-4-yl)amino)-1,3,4-oxadiazol-2-yl)-5-(trifluoromethyl)-3-azabicyclo[3.1.0]hexan-3-yl)quinoline-8-carbonitrile], the 50% inhibitory concentration (IC50) was over 1000 nM.

On to `N#Cc1ccc(N2C[C@]3(c4nnc(N)o4)C[C@]3(C(F)(F)F)C2)c2cccnc12` [Compound 7, 5-((1S,5R)-1-(5-amino-1,3,4-oxadiazol-2-yl)-5-(trifluoromethyl)-3-azabicyclo[3.1.0]hexan-3-yl)quinoline-8-carbonitrile], for which the 50% inhibitory concentration (IC50) was over 10000 nM.

In the case of `CN1CCC(C)(c2nnc([C@]34CN(c5ccc(C#N)c6ncccc56)C[C@@]3(C(F)(F)F)C4)o2)CC1` [Compound 8, 5-((1S,5R)-1-(5-(1,4-dimethylpiperidin-4-yl)-1,3,4-oxadiazol-2-yl)-5-(trifluoromethyl)-3-azabicyclo[3.1.0]hexan-3-yl)quinoline-8-carbonitrile], the IC50 was over 1000 nM.

As for `CN1CCC(c2nnc([C@]34CN(c5ccc(C#N)c6ncccc56)C[C@@]3(C(F)(F)F)C4)[nH]2)CC1` [Compound 9, 5-((1S,5R)-1-(5-(1-methylpiperidin-4-yl)-4H-1,2,4-triazol-3-yl)-5-(trifluoromethyl)-3-azabicyclo[3.1.0]hexan-3-yl)quinoline-8-carbonitrile], the IC50 was over 1000 nM.

As to `CN1[C@@H]2CC[C@H]1C[C@H](c1nnc([C@]34CN(c5ccc(C#N)c6ncccc56)C[C@@]3(C(F)(F)F)C4)o1)C2` [Compound 11, 5-((1S,5R)-1-(5-((1R,3S,5S)-8-methyl-8-azabicyclo[3.2.1]octan-3-yl)-1,3,4-oxadiazol-2-yl)-5-(trifluoromethyl)-3-azabicyclo[3.1.0]hexan-3-yl)quinoline-8-carbonitrile], the half-inhibitory concentration (IC50) is over 1000 nM.

Take `N#Cc1ccc(N2C[C@]3(c4nnc(C5CCOCC5)o4)C[C@]3(C(F)(F)F)C2)c2cccnc12` [Compound 12, 5-((1S,5R)-1-(5-(tetrahydro-2H-pyran-4-yl)-1,3,4-oxadiazol-2-yl)-5-(trifluoromethyl)-3-azabicyclo[3.1.0]hexan-3-yl)quinoline-8-carbonitrile]: the 50% inhibitory concentration (IC50) was over 10000 nM.

For the compound `CN1CC2(CCC(c3nnc([C@]45CN(c6ccc(C#N)c7ncccc67)C[C@@]4(C(F)(F)F)C5)o3)CC2)C1` [Compound 13, 5-((1S,5R)-1-(5-(2-methyl-2-azaspiro[3.5]nonan-7-yl)-1,3,4-oxadiazol-2-yl)-5-(trifluoromethyl)-3-azabicyclo[3.1.0]hexan-3-yl)quinoline-8-carbonitrile], the IC50 is over 1000 nM.

Take `CN1CC2CC1CC2c1nnc([C@]23CN(c4ccc(C#N)c5ncccc45)C[C@@]2(C(F)(F)F)C3)o1` (stereo partly drawn) [Compound 14, 5-((1S,5R)-1-(5-(2-methyl-2-azabicyclo[2.2.1]heptan-5-yl)-1,3,4-oxadiazol-2-yl)-5-(trifluoromethyl)-3-azabicyclo[3.1.0]hexan-3-yl)quinoline-8-carbonitrile]: the IC50 was over 1000 nM.

Turning to `CN1CCC(Oc2nnc([C@]34CN(c5ccc(C#N)c6ncccc56)C[C@@]3(C(F)(F)F)C4)o2)CC1` [Compound 15, 5-((1S,5R)-1-(5-((1-methylpiperidin-4-yl)oxy)-1,3,4-oxadiazol-2-yl)-5-(trifluoromethyl)-3-azabicyclo[3.1.0]hexan-3-yl)quinoline-8-carbonitrile], the IC50 was over 1000 nM.

As for `N#Cc1ccc(N2C[C@]3(c4nnc(C5CCN(CC(N)=O)CC5)o4)C[C@]3(C(F)(F)F)C2)c2cccnc12` [Compound 17, 2-(4-(5-((1S,5R)-3-(8-cyanoquinolin-5-yl)-5-(trifluoromethyl)-3-azabicyclo[3.1.0]hexan-1-yl)-1,3,4-oxadiazol-2-yl)piperidin-1-yl)acetamide], the half-inhibitory concentration (IC50) is over 10000 nM.

Regarding `N#Cc1ccc(N2C[C@]3(c4nnc(C5CC6(CNC6)C5)o4)C[C@]3(C(F)(F)F)C2)c2cccnc12` [Compound 18, 5-((1S,5R)-1-(5-(2-azaspiro[3.3]heptan-6-yl)-1,3,4-oxadiazol-2-yl)-5-(trifluoromethyl)-3-azabicyclo[3.1.0]hexan-3-yl)quinoline-8-carbonitrile], the IC50 was under 1000 nM.

With `CN1CC2(CC(c3nnc([C@]45CN(c6ccc(C#N)c7ncccc67)C[C@@]4(C(F)(F)F)C5)o3)C2)C1` [Compound 19, 5-((1S,5R)-1-(5-(2-methyl-2-azaspiro[3.3]heptan-6-yl)-1,3,4-oxadiazol-2-yl)-5-(trifluoromethyl)-3-azabicyclo[3.1.0]hexan-3-yl)quinoline-8-carbonitrile], the half-maximal inhibitory concentration (IC50) is over 1000 nM.

With `N#Cc1ccc(N2C[C@]3(c4nnc([C@H]5CC[C@H](N)CC5)o4)C[C@]3(C(F)(F)F)C2)c2cccnc12` [Compound 20, 5-((1S,5R)-1-(5-((1R,4S)-4-aminocyclohexyl)-1,3,4-oxadiazol-2-yl)-5-(trifluoromethyl)-3-azabicyclo[3.1.0]hexan-3-yl)quinoline-8-carbonitrile], the 50% inhibitory concentration (IC50) is over 1000 nM.
